Assay results: paper PMC11036874, “In vitro characterization of [^125I]HY-3-24, a selective ligand for the dopamine D3 receptor” (Frontiers in Neuroscience, 2024)
Where two headings read alike, the source gives them in different places. Each block holds one compound with its values, some of them ahead of it.

Assays:
[1] = target: T1, D3R (Rattus norvegicus, UniProt P19020); assay: Competition binding study of [125I]HY-3-24 in rat ventral striatal membranes; settings: for fold lower affinity/potency for displacing [125I]HY-3-24 relative to eticlopride: rat ventral striatum
T1 construct: The ventral striatum was isolated by dissection on ice; tissue Innovative research, Inc; host or cells: Sprague–Dawley rat brain: ventral striatal homogenates; frozen brain sections
Procedure: (§1) Frozen rat brains (Sprague–Dawley rat, Male, 6–8 weeks old) were obtained from Innovative research, Inc. (Novi, Michigan, United States). The ventral striatum was isolated by dissection on ice. Cold homogenization buffer (HB, 20 mM Tris–HCl, 5 mM MgCl2, 1 mM EDTA, pH7.5) was added and the tissue homogenized by mortar and pestle on ice. Homogenized tissue was centrifuged at 10,000 × g, 4°C for 30 min. Supernatant was removed and pellet was mixed with cold HB buffer by vortex. This process was repeated two times to get rat ventral striatal homogenates; and protein amount was determined using a BCA protein assay kit. Homogenized tissue homogenates were stored at −80°C until use.
10 μM of (+)-butaclamol was used for determination of non-specific binding. The final reaction volume was 200 μL and the assay mixture was incubated at RT for 60 min. […] The filter was washed with cold buffer (3 times) and counted by gamma counter. The value of Ki was calculated using nonlinear regression analysis by PRISM 9 and the results was presented mean ± SD by three individual experiments.

[2] = target: hD2R; parameters: method as in Yang et al., 2000; settings: ref Yang et al., 2000; cited from earlier work
[3] = target: hD3R; parameters: method as in Yang et al., 2000; settings: ref Yang et al., 2000; cited from earlier work
[4] = target: hD2R; parameters: method as in Kim et al., 2023; settings: ref Kim et al., 2023; cited from earlier work
[5] = target: hD3R; parameters: method as in Kim et al., 2023; settings: ref Kim et al., 2023; cited from earlier work
[6] = Distribution coefficient (LogD7.4), shake-flask; format: physicochemical; settings: n-octanol / 0.01 M phosphate buffer pH 7.4, shake-flask, quintuplicate
Procedure: In a separatory funnel, 10 mL of n-octanol and 20 mL of 0.01 M phosphate buffer (pH 7.4) solution were placed and 5 μL of [^125I]HY-3-24 (700 kBq) was added. The mixture was vigorously shaken for 1 min followed by standing for 20 min to completely separate the layers. Five 1 mL of aliquots were taken from each phase and the radioactivity of each fraction was measured by a Wizard2 Automatic Gamma Counter. LogD7.4 was measured in quintuplicate and calculated as the logarithm of the ratio of radioactivity in organic phase to that in water phase.

[7] = target: T1, D3R; assay: Saturation/equilibrium binding of [125I]HY-3-24 on rat ventral striatum
Procedure: as §1
To confirm saturation time of [^125I]HY-3-24 with prepared membrane, [^125I]HY-3-24 (~0.3 nM) was mixed with 100 μg of membrane and incubated at RT up to 2 h. [^125I]HY-3-24 bound protein was collected by fast filtration methods (CF/C filter, Brandel Inc., Maryland, United States) and counted using gamma counter (PerkinElmer, Massachusetts, United States).
For saturation binding study, [^125I]HY-3-24 (0.001–1.6 nM concentration range) was incubated with 100 μg/100 μL of homogenized protein at RT for 60 min. Non-specific binding was defined the presence of 10 μM (+)-butaclamol, and total reaction volume was 200 μL. The reaction was finished by adding cold buffer (10 mM Tris–HCl, 150 mM NaCl, pH 7.5), and [^125I]HY-3-24 bound protein was filtered by 24-well harvester (Brandel Inc., Maryland, United States) through CF/C filter soaked with 1% PEI, and washed three times with 4 mL cold buffer. The collected filter was counted by gamma counter and data were analyzed by PRISM 9. The values of Bmax and Kd were obtained by three individual experiments.

[8] = target: T1, D3R; assay: In vitro autoradiography, rat brain sections; format: binding
Procedure: (§2) Regional brain distribution of [^125I]HY-3-24 binding was determined by in vitro autoradiography using Sprague–Dawley rat and non-human primate brains. A Cryotome (Leica Biosystems, Germany) was used for sectioning frozen brains by coronal and/or sagittal direction, and the thickness of tissue was 10–20 μm. Sectioned slides were stored at −80°C until use. The adjacent brain slides were warmed to RT for 20 min, the slides were incubated with cold reaction buffer (50 mM Tris–HCl, 150 mM NaCl, 1 mM EDTA, pH 7.5) at RT for 10 min, and the buffer was discarded. The slides were then incubated with […] of [^125I]HY-3-24 at RT for 1 h. For non-specific binding, 2 μM of (+)-butaclamol was used. After incubation, the slides were washed with cold buffer (three times) for 2 min, then air dried at RT for 10 min. Radiolabeled brain tissues were exposed to BAS imaging plate (Fujifilm, Tokyo, Japan) for 3 days, and the result was digitized by Typhoon FLA 7000 (GE Healthcare, Illinois, United States) and analyzed by Multi Gauge V3.0. For blocking studies comparing (+)-butaclamol and raclopride, brain slides were initially pretreated with blocking agent (50 nM) for 1 h. prior to the addition of the radioligand (0.3 nM).

[9] = target: T2, D3R (Macaca mulatta, UniProt F6U709); assay: In vitro autoradiography, non-human primate brain sections; format: binding; settings: rhesus monkey brain sections
T2 construct: in vitro autoradiography using Sprague–Dawley rat and non-human primate brains; from tissue; host or cells: non-human primate brain sections
Procedure: as §2

[10] = target: T1, D3R; assay: D3R and D2R blocking studies of [125I]HY-3-24 in rat striatal homogenates; format: binding; settings: blocker at 2.4 nM, rat striatal membranes, RT 2 h
Procedure: For the D3R and D2R blocking studies, [^125I]HY-3-24 (0.3 nM) was mixed with 100 μg of protein and incubated at RT for 2 h in the presence or absence of 30 nM cold HY-3-24, 100 nM SB-277-011A, 10 nM SB-277-011A, or 2.4 nM L-741,626. [^125I]HY-3-24 bound protein was collected by fast filtration methods (GF/C filter soaked in 1% PEI, Brandel Inc., Maryland, United States) and counted using gamma counter (PerkinElmer, Massachusetts, United States).

[11] = target: D2 receptors; parameters: method as in Kulagowski et al., 1996; settings: ref Kulagowski et al., 1996; read-out: Ki for displacing [3H]spiperone to D2 receptors; cited from earlier work
[12] = rat ventral striatal homogenates, 0.2–0.3 nM [125I]HY-3-24, RT 60 min, mean ± SD of three experiments, read-out: Ki for inhibiting [125I]HY-3-24 binding
[13] = rat brain coronal sections, ~0.3 nM radioligand

T1 sequence (P19020 whole entry): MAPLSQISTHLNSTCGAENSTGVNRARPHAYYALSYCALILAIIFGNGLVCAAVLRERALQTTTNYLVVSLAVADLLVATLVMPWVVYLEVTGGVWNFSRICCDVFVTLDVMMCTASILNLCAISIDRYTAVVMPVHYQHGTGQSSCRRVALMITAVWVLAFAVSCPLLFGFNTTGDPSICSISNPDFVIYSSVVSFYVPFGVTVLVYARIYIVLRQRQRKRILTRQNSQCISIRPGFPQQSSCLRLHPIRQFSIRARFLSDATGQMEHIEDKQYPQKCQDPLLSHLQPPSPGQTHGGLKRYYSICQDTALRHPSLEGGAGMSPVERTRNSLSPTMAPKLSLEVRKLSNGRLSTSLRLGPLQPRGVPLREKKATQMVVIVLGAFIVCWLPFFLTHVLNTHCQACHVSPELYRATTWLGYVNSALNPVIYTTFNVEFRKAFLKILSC
T2 sequence (F6U709 1-400): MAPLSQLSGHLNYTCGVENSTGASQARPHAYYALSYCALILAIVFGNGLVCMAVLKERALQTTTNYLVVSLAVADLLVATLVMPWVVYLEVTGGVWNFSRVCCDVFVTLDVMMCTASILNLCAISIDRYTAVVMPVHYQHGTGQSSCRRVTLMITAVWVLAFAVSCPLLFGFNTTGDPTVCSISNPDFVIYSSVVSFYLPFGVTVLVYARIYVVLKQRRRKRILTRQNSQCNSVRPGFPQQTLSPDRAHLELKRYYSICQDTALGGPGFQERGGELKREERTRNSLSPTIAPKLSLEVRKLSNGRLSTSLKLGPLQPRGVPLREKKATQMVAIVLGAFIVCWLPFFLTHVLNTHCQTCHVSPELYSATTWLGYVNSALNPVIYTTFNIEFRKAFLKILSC

Structure (SMILES): CCCN1CCO[C@@H]2c3cc(O)ccc3OC[C@H]21 [PD128907]
Ki [1, 12]: 7.65 ± 1.15 nM

Ki [1]: 0.25 ± 0.02 nM
Structure (SMILES): CCc1cc(Cl)c(OC)c(C(=O)NC[C@@H]2CCCN2CC)c1O [Eticlopride]

Ki [1, 12]: 2.51 ± 0.9 nM
fold lower affinity/potency for displacing [125I]HY-3-24 relative to eticlopride [1]: 10 fold
Structure (SMILES): CCN1CCC[C@H]1CNC(=O)c1c(O)c(Cl)cc(Cl)c1OC [Raclopride]

Structure (SMILES): CCN(CC)CCNC(=O)c1cc(Cl)c(N)cc1OC [Metoclopramide]
Ki [2]: 21 ± 1 nM
Ki [3]: 27 ± 3 nM

Structure (SMILES): CCN(CCCNC(=O)c1ccc(-c2ccncc2)cc1)CCNC(=O)c1cc(Br)cc(OC)c1OC [compound 6]
Ki [4]: 107 ± 5 nM
Ki [5]: 1.1 ± 0.1 nM

Structure (SMILES): CCN(CCCNC(=O)c1ccc(-c2ccncc2)cc1)CCNC(=O)c1cc([125I])cc(OC)c1OC [[^125I]HY-3-24]
logD at 1 min [6]: 2.41 ± 0.01
percentage of specific binding ([7]; rat ventral striatal membranes): over 70%
non-specific binding, of total binding ([7]; rat ventral striatal membranes, 10 μM (+)-butaclamol): less than 10%
Kd ([7]; rat ventral striatal membranes, RT 60 min, three experiments): 0.34 ± 0.22 nM
Bmax ([7]; rat ventral striatal membranes, fmol/mg of protein, three experiments): 38.91 ± 2.39 fmol/mg
time to binding equilibrium ([7]; ~0.3 nM radioligand, 100 μg protein, RT, persisted until 2 h): about 30 min
binding in NAc including ICjM, and ICj [8, 13]: High binding
binding in striatum [8, 13]: lower amount of binding
displaceability by (+)-butaclamol and raclopride ([8]; rat brain slices, blocking agents 50 nM, radioligand ~0.3 nM): fully displaceable
non-specific binding ([9]; blocking with 2 μM (+)-butaclamol): low level of non-specific binding
binding in caudate nucleus (Cd), putamen (Pu), NAc, and ICj ([9]; ~0.1 nM radioligand): high density

Structure (SMILES): CCCN1CCO[C@@H]2c3cc(O)ccc3CC[C@H]21 [(+)-PHNO]
Ki [1, 12]: 1.72 ± 0.46 nM

Ki [1, 12]: 215 ± 61.7 nM
fold lower affinity/potency for displacing [125I]HY-3-24 relative to eticlopride [1]: 1,000 fold
Structure (SMILES): CN1CCc2cc(Cl)c(O)cc2[C@@H](c2ccccc2)C1 [SCH23390]

displacement of [125I]HY-3-24 binding [10]: no displacement
Structure (SMILES): OC1(c2ccc(Cl)cc2)CCN(Cc2c[nH]c3ccccc23)CC1 [L-741,626]
Ki [11]: 2.4 nM
